Test: S-PMA concentration in urine samples from neonates and adults, by automatic mass spectrometry analytical system (on-line C18 cartridge, ESI-MS/MS)
Assay type: in vivo, human
Protocol: The collected urine samples were passed through 0.2 μm filtration membranes. An aliquot of 400 μL of filtered urine was firstly mixed with […] of 20% acetic acid and 100 μL of 1000 μg/L internal standard (IS), N-t-BOC-S-(p-methyl-benyl)-L-cysteine, with a known amount of S-PMA added when spiking experiments were performed, and diluted with 1400 μL of deionized water. From the total volume of 2000 μL, 200 μL of aliquot was injected into the analytical system (FIG. 1) for analysis. No other sample pretreatment procedures were performed or required other than the filtration described above. This can greatly simplify preparation procedures and save time.
Samples were loaded onto the C18 cartridge 2 (particle size 3 μm) by the pump 10 of autosampler 1 (as shown in FIG. 1) using 100% water at 0.6 mL/min, and were washed with 100% water for optimization time of 12 minutes (1.0, 2.0, 3.0, 4.0, 5.0, 6.0, 7.0, 8.0, 10.0, 12.0, 13.0, 14.0). This is to remove highly hydrophilic components of the urine samples to avoid interference with the subsequent detection results of spectrometry 4. The switching unit 3 (valve) was then activated to the Elute position and the sample was eluted with 1.0 mL/min 100% methanol provided by pump 10′ from cartridge 2 into the mass spectrometry 4 for analysis.
The mass spectrometry used in this invention is the API 365 Triple Quadrupole MS/MS.
Using the process described in Embodiment 1 above, this invention was used to establish the optimal experimental mode of quantitative detection of organic toxicant exposure in the human body using an automatic mass spectrometry analytical system. This Embodiment is to analyze the S-PMA concentration in urine samples collected from six neonates and six adults in the same hospital; the results are listed in Table 1. In the automatic mass spectrometry analytical system of this invention, each analysis took less than 18 minutes, and therefore 80 urine samples could be analyzed within 24 hours.

Compound: CC(=O)NC(CSc1ccccc1)C(=O)O (centres unmarked) [S-PMA, S-phenyl mercapturic acid]
- S-PMA (Adult 1, non-smoker): 0.560 µg/L
- S-PMA (Adult 2, non-smoker): 1.268 µg/L
- S-PMA (Adult 3, non-smoker): 1.411 µg/L
- S-PMA (Adult 4, non-smoker): 4.196 µg/L
- S-PMA (Adult 5, non-smoker): 0.993 µg/L
- S-PMA (Adult 6, non-smoker): 1.255 µg/L
- S-PMA (Neonate 1): 0.249 µg/L
- S-PMA (Neonate 2): 0.345 µg/L
- S-PMA (Neonate 3): 0.322 µg/L
- S-PMA (Neonate 4): 0.365 µg/L
- S-PMA (Neonate 5): 0.356 µg/L
- S-PMA (Neonate 6): 0.348 µg/L
- S-PMA Arithmetic Mean (six adults, non-smokers): 1.614 µg/L
- S-PMA Arithmetic Mean (six neonates): 0.331 µg/L

From US20040043503A1, “Automatic mass spectrometry analytical system for the quantitative detection of organic toxicant exposure in the human body” (priority 2002, published 2004)
